The numbers were not newly measured in patent publication US20150290158A1, “X-RAY CONTRAST MEDIA COMPOSITIONS AND METHODS OF USING THE SAME TO TREAT, REDUCE OR DELAY THE ONSET OF CNS INFLAMMATION AND INFLAMMATION ASSOCIATED CONDITIONS” (priority 2012, published 2015), which cites them from elsewhere.

Structures are written as SMILES. Peptide text beside a SMILES is read from it.

The test system of one data set is TNF-alpha. As to conditions: in vitro.
The subject of a further data set is mast cell degranulation. To be noted: in vitro, immunological and non-immunological stimuli.
Data set [1] has as its system allergen induced nasal obstruction. As to conditions: used as a nasal spray, in vivo.
Data set [2] concerns the target angiotensin converting enzyme (ACE) (Homo sapiens, UniProt P12821). As to conditions: compared with commercial iopamidol (contains chelator); from Lasser et al., 1990.

angiotensin converting enzyme (ACE), sequence (P12821 30-1306, species assumed): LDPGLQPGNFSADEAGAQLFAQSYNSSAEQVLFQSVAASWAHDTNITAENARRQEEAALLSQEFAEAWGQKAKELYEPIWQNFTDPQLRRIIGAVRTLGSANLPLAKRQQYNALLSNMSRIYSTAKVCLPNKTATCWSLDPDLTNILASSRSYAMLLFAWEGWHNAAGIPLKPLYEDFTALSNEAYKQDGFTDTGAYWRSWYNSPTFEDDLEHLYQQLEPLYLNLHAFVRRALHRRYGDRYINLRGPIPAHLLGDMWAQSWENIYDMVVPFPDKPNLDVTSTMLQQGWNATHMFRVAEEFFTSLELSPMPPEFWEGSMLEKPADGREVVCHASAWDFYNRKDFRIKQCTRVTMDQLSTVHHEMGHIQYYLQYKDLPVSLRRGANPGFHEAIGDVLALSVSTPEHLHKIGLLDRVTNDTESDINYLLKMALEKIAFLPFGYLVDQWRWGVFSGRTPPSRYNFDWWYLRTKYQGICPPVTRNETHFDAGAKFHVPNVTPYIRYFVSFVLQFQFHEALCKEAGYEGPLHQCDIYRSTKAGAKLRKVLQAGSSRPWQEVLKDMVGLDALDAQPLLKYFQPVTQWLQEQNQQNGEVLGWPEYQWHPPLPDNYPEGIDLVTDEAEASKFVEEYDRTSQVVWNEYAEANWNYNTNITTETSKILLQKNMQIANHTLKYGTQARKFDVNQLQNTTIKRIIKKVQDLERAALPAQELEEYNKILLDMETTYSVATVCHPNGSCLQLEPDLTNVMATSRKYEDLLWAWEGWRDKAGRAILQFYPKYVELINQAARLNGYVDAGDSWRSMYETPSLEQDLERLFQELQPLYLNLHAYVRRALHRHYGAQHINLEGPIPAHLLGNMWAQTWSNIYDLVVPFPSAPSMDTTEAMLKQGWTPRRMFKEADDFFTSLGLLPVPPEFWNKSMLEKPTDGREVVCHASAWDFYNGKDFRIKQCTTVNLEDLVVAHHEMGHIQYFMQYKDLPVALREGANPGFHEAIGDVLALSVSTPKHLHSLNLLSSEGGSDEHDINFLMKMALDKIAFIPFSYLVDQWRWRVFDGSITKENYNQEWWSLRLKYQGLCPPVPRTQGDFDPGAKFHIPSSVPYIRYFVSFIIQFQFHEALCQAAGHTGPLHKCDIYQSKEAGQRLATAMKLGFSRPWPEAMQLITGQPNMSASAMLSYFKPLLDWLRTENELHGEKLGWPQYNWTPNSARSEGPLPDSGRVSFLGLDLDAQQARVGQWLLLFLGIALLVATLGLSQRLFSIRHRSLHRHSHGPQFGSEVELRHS

Consider `O=C(O)c1cc(=O)c2c(OCC(O)COc3cccc4oc(C(=O)O)cc(=O)c34)cccc2o1` [Sodium cromoglycate], for which the “inhibition of TNF-alpha” value with TNF-alpha is “inhibited TNF-alpha in vitro”.
Take `CC(=O)N[C@@H](CC(=O)[O-])C(=O)N[C@@H](CCC(=O)[O-])C(=O)O.[Mg+2]` [magnesium salt of n-acetyl aspartyl glutamic acid] (Ac-Asp-Glu-OH): the mast cell degranulation entry in the data set on mast cell degranulation is “inhibit mast cell degranulation”. In addition, the “allergen induced nasal obstruction” value in data set [1] is listed as “reduce allergen induced nasal obstruction”.
As to `CCCc1c2oc(C(=O)[O-])cc(=O)c2cc2c(=O)cc(C(=O)[O-])n(CC)c12.[Na+].[Na+]` [nedocrimal sodium], the “inhibition of TNF-alpha” value with TNF-alpha was “inhibited TNF-alpha in vitro”.
In the case of `C[C@H](O)C(=O)Nc1c(I)c(C(=O)NC(CO)CO)c(I)c(C(=O)NC(CO)CO)c1I` [purified iopamidol, iopamidol], in data set [2], the “inhibition of ACE” value is on record as “diminishes the inhibition ACE significantly”.
